Where two headings read alike, the source gives them in different places.
Tests used:
Test in all cases: Kinase assay, binding constants (Kd), kinase-tagged T7 phage, qPCR
FGFR1 = FGFR1 (Homo sapiens (Human), UniProt P11362)
In short: (§1)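 Kinase-tagged T7 phage (grown in BL21-derived E. coli) competed with test compound for immobilized biotinylated ligand on streptavidin beads. Kds came from an 11-point 3-fold dilution series at 0.9% final DMSO. Bound kinase was eluted with non-biotinylated ligand and quantified by qPCR, with Hill slope fixed at −1.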

FGFR2 = FGFR2 (Homo sapiens (Human), UniProt P21802)
FGFR2, sequence (P21802 22-821): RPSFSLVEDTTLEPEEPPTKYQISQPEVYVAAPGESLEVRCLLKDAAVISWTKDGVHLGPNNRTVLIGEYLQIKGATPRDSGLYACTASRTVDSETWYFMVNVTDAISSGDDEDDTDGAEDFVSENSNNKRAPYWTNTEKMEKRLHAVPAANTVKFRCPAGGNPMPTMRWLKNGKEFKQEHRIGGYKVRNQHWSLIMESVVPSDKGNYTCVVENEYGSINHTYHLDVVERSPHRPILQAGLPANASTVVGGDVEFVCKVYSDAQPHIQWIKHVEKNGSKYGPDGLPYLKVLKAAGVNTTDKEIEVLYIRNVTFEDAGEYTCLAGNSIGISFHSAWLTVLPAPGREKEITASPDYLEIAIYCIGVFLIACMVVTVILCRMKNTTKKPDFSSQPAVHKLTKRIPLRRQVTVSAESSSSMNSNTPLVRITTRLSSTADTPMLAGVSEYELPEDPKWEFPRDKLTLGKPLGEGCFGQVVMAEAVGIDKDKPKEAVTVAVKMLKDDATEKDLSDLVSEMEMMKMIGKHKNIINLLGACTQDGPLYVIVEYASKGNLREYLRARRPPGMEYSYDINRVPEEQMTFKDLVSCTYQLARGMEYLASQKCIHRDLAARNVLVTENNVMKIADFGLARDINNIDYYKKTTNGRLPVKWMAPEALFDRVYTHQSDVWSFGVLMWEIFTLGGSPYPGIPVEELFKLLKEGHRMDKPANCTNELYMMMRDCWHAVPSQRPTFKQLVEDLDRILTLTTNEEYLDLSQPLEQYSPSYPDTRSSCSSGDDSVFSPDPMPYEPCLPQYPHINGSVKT
In short: as §1

FGFR3 = FGFR3 (Homo sapiens (Human), UniProt P22607)
FGFR3, sequence (P22607 23-806): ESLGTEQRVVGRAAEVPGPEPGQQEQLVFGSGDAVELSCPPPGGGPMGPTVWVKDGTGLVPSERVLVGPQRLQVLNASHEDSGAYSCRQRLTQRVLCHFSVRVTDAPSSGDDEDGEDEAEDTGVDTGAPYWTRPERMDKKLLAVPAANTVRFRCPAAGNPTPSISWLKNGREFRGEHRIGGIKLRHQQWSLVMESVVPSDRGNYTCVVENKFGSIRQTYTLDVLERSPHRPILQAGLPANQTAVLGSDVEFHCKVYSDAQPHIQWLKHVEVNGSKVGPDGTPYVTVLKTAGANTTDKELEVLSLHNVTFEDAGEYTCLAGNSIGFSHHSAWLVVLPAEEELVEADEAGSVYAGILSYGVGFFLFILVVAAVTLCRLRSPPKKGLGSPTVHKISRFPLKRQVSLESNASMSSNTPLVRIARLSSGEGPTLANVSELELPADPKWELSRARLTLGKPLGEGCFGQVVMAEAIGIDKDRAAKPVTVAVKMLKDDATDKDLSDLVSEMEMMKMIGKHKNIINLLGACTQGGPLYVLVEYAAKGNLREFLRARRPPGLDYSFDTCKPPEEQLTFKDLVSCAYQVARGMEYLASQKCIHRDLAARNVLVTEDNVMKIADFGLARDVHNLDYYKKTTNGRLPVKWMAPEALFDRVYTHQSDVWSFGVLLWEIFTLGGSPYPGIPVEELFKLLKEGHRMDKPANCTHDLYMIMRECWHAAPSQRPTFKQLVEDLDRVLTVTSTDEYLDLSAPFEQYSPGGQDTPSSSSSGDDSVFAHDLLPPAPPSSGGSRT
In short: as §1

FGFR3 (V555M) = FGFR3 (V555M) (Homo sapiens (Human), UniProt P22607, V555M); conditions: V555M mutant
FGFR3 (V555M), sequence (P22607 23-806 V555M): as the sequence (P22607 23-806) above, with V533M counted along it
In short: as §1

FGFR4 = FGFR4 (Homo sapiens (Human), UniProt P22455)
FGFR4, sequence (P22455 22-802): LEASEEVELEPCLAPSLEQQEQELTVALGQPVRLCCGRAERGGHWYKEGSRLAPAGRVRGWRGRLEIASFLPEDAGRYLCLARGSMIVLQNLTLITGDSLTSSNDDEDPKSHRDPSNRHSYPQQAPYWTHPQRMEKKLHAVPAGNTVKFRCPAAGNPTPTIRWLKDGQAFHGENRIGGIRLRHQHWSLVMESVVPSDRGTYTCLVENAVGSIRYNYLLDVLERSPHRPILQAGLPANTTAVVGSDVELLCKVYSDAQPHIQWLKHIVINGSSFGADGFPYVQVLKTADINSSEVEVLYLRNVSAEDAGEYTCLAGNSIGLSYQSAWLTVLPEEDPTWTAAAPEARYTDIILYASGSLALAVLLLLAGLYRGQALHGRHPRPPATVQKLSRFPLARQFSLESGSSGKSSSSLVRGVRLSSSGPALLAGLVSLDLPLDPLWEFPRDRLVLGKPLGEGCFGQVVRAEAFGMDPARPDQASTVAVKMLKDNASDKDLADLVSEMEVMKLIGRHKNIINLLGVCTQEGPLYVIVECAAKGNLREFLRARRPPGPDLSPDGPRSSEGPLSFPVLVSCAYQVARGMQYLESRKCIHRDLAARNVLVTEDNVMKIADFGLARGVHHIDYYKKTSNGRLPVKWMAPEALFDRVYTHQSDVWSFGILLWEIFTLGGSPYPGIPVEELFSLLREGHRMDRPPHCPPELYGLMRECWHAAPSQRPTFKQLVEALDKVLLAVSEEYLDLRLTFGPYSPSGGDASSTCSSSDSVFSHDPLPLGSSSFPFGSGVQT
In short: as §1

FGFR1, sequence (P11362 22-822): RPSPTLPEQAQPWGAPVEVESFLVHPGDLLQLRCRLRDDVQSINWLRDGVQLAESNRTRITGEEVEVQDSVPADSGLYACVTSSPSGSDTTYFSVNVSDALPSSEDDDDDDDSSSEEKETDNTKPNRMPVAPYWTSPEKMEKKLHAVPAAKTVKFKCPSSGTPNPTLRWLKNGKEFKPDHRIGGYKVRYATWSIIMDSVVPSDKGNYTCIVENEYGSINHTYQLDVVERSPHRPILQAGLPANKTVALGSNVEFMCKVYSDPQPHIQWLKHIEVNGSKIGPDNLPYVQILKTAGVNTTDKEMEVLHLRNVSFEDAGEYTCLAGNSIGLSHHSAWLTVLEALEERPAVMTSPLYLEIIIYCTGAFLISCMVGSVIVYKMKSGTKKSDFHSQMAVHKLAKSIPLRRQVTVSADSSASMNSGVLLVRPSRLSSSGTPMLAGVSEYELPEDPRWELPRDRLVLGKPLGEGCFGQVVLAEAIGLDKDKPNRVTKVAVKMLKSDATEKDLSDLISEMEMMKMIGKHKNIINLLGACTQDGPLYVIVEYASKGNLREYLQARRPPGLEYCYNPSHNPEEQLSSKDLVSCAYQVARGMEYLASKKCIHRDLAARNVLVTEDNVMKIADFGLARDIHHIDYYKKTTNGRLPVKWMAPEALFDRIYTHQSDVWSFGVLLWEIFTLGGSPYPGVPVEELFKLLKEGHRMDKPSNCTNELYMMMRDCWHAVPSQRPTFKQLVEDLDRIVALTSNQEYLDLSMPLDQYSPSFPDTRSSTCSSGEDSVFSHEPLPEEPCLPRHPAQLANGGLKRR

| SMILES | Kd (FGFR1) | Kd (FGFR2) | Kd (FGFR3; given as a number) | Kd (FGFR3 (V555M)) | Kd (FGFR4) | Kd (FGFR3) |
| --- | --- | --- | --- | --- | --- | --- |
| Cc1ncc(Cl)c([C@@H](C)Oc2ccc3[nH]nc(-c4cnc(N5CC6(CCCN(S(C)(=O)=O)C6)C5)c(C#N)c4)c3c2)c1Cl [Example 350, 5-[5-[(1R)-1-(3,5-dichloro-2-methyl-4-pyridyl)ethoxy]-1H-indazol-3-yl]-2-(8-methylsulfonyl-2,8-diazaspiro[3.5]nonan-2-yl)pyridine-3-carbonitrile] | > 300 nM | 100 to 300 nM | 90 nM | 20 to 100 nM | 1 to 20 nM | – |
| C[C@@H](Oc1ccc2[nH]nc(-c3cnc(N4CC[C@@H]4CO)c(C#N)c3)c2c1)c1c(Cl)cncc1Cl [Example 351, 5-(5-((R)-1-(3,5-dichloropyridin-4-yl)ethoxy)-1H-indazol-3-yl)-2-((R)-2-(hydroxymethyl)azetidin-1-yl)nicotinonitrile] | 20 to 100 nM | 100 to 300 nM | – | 1 to 20 nM | 1 to 20 nM | 1 to 20 nM |
| Cc1cc2[nH]nc(-c3cnc(N4CC5(C4)CN(S(C)(=O)=O)C5)c(C#N)c3)c2cc1O[C@H](C)c1c(Cl)cncc1Cl [Example 352, (R)-5-(5-(1-(3,5-dichloropyridin-4-yl)ethoxy)-6-methyl-1H-indazol-3-yl)-2-(6-(methylsulfonyl)-2,6-diazaspiro[3.3]heptan-2-yl)nicotinonitrile] | 20 to 100 nM | 100 to 300 nM | – | 1 to 20 nM | 1 to 20 nM | 1 to 20 nM |
| C[C@@H](Oc1ccc2[nH]nc(-c3cnc(N4CC(F)(F)C4)c(C#N)c3)c2c1)c1c(Cl)cncc1Cl [Example 353, (R)-5-(5-(1-(3,5-dichloropyridin-4-yl)ethoxy)-1H-indazol-3-yl)-2-(3,3-difluoroazetidin-1-yl)nicotinonitrile] | > 300 nM | > 300 nM | – | 20 to 100 nM | 1 to 20 nM | 20 to 100 nM |
| C[C@@H](Oc1ccc2[nH]nc(-c3cnc(N4CC[C@H]4CO)c(C#N)c3)c2c1)c1c(Cl)cncc1Cl [Example 354, 5-(5-((R)-1-(3,5-dichloropyridin-4-yl)ethoxy)-1H-indazol-3-yl)-2-((S)-2-(hydroxymethyl)azetidin-1-yl)nicotinonitrile] | 20 to 100 nM | 20 to 100 nM | – | 1 to 20 nM | 1 to 20 nM | 1 to 20 nM |
| C[C@@H](Oc1cc2c(-c3cnc(N4CC5(C4)CN(S(C)(=O)=O)C5)c(C#N)c3)n[nH]c2cc1F)c1c(Cl)cncc1Cl [Example 355, (R)-5-(5-(1-(3,5-dichloropyridin-4-yl)ethoxy)-6-fluoro-1H-indazol-3-yl)-2-(6-(methylsulfonyl)-2,6-diazaspiro[3.3]heptan-2-yl)nicotinonitrile] | 1 to 20 nM | 20 to 100 nM | – | 1 to 20 nM | 1 to 20 nM | 1 to 20 nM |
| C[C@@H](Oc1ccc2[nH]nc(-c3cnc(N4CC5(C4)CN(S(C)(=O)=O)C5)c(CN(C)C)c3)c2c1)c1c(Cl)cncc1Cl [Example 356, (R)-1-(5-(5-(1-(3,5-dichloropyridin-4-yl)ethoxy)-1H-indazol-3-yl)-2-(6-(methylsulfonyl)-2,6-diazaspiro[3.3]heptan-2-yl)pyridin-3-yl)-N,N-dimethylmethanamine] | > 300 nM | > 300 nM | – | 100 to 300 nM | 20 to 100 nM | > 300 nM |
| COc1cc2[nH]nc(-c3cnc(N4CC5(C4)CN(S(C)(=O)=O)C5)c(CN(C)C)c3)c2cc1O[C@H](C)c1c(Cl)cncc1Cl [Example 357, (R)-1-(5-(5-(1-(3,5-dichloropyridin-4-yl)ethoxy)-6-methoxy-1H-indazol-3-yl)-2-(6-(methylsulfonyl)-2,6-diazaspiro[3.3]heptan-2-yl)pyridin-3-yl)-N,N-dimethylmethanamine] | > 300 nM | > 300 nM | – | 20 to 100 nM | 1 to 20 nM | 100 to 300 nM |
| C[C@@H](Oc1ccc2[nH]nc(-c3cnc(N4CC(C)(N)C4)c(C#N)c3)c2c1)c1c(Cl)cncc1Cl [Example 358, (R)-2-(3-amino-3-methylazetidin-1-yl)-5-(5-(1-(3,5-dichloropyridin-4-yl)ethoxy)-1H-indazol-3-yl)nicotinonitrile] | 20 to 100 nM | 100 to 300 nM | – | 1 to 20 nM | 1 to 20 nM | 1 to 20 nM |
| C[C@@H](Oc1cc2c(-c3cnc(N4CC5(C4)CN(S(C)(=O)=O)C5)c(C#N)c3)n[nH]c2cc1Cl)c1c(Cl)cncc1Cl [Example 359, (R)-5-(6-chloro-5-(1-(3,5-dichloropyridin-4-yl)ethoxy)-1H-indazol-3-yl)-2-(6-(methylsulfonyl)-2,6-diazaspiro[3.3]heptan-2-yl)nicotinonitrile] | 20 to 100 nM | 20 to 100 nM | – | > 300 nM | 1 to 20 nM | 1 to 20 nM |
| COc1cc2[nH]nc(-c3cnc(N4CCC4)c(C#N)c3)c2cc1O[C@H](C)c1c(Cl)cnnc1Cl [Example 360, (R)-2-(azetidin-1-yl)-5-(5-(1-(3,5-dichloropyridazin-4-yl)ethoxy)-6-methoxy-1H-indazol-3-yl)nicotinonitrile] | 100 to 300 nM | 20 to 100 nM | – | > 300 nM | 1 to 20 nM | 20 to 100 nM |
| C[C@@H](Oc1ccc2[nH]nc(-c3cnc(N4CCC4)c(C#N)c3)c2c1)c1c(Cl)cnnc1Cl [Example 361, (R)-2-(azetidin-1-yl)-5-(5-(1-(3,5-dichloropyridazin-4-yl)ethoxy)-1H-indazol-3-yl)nicotinonitrile] | > 300 nM | 100 to 300 nM | – | 100 to 300 nM | 1 to 20 nM | 100 to 300 nM |

The remaining lines, values ahead:

| Kd (FGFR1) | Kd (FGFR2) | Kd (FGFR3; given as a number) | Kd (FGFR3 (V555M)) | Kd (FGFR4) | Kd (FGFR3) | SMILES |
| --- | --- | --- | --- | --- | --- | --- |
| 20 to 100 nM | 100 to 300 nM | – | 1 to 20 nM | 1 to 20 nM | 1 to 20 nM | C[C@@H](Oc1cc2c(-c3cnc(N4CC5(CCCS(=O)(=O)C5)C4)c(C#N)c3)n[nH]c2cc1F)c1c(Cl)cncc1Cl [Example 362] |
| > 300 nM | > 300 nM | – | > 300 nM | > 300 nM | > 300 nM | C[C@@H](Oc1ccc2[nH]nc(-c3cnc(N4CCC4CN(C)C)c(C#N)c3)c2c1)c1c(Cl)cncc1Cl (stereo partly drawn) [Example 363, 5-(5-((R)-1-(3,5-dichloropyridin-4-yl)ethoxy)-1H-indazol-3-yl)-2-(2-((dimethylamino)methyl)azetidin-1-yl)nicotinonitrile] |
| 20 to 100 nM | 1 to 20 nM | – | 1 to 20 nM | 20 to 100 nM | 1 to 20 nM | C[C@@H](Oc1cc2c(-c3cnc(N4CC(C)(C)C4)c(C#N)c3)n[nH]c2cc1Cl)c1c(Cl)cncc1Cl [Example 364, (R)-5-(6-chloro-5-(1-(3,5-dichloropyridin-4-yl)ethoxy)-1H-indazol-3-yl)-2-(3,3-dimethylazetidin-1-yl)nicotinonitrile] |
| > 300 nM | > 300 nM | – | 100 to 300 nM | 20 to 100 nM | 100 to 300 nM | C[C@@H](Oc1cc2c(-c3cnc(N4CC[C@@H]4C)c(C#N)c3)n[nH]c2cc1Cl)c1c(Cl)cncc1Cl [Example 365, 5-(6-chloro-5-((R)-1-(3,5-dichloropyridin-4-yl)ethoxy)-1H-indazol-3-yl)-2-((S)-2-methylazetidin-1-yl)nicotinonitrile] |
| 100 to 300 nM | > 300 nM | – | 20 to 100 nM | 1 to 20 nM | 20 to 100 nM | C[C@@H](Oc1cc2c(-c3cnc(N4CCC4)c(CN(C)C)c3)n[nH]c2cc1Cl)c1c(Cl)cncc1Cl [Example 366, (R)-1-(2-(azetidin-1-yl)-5-(6-chloro-5-(1-(3,5-dichloropyridin-4-yl)ethoxy)-1H-indazol-3-yl)pyridin-3-yl)-N,N-dimethylmethanamine] |
| > 300 nM | > 300 nM | – | 20 to 100 nM | 20 to 100 nM | 100 to 300 nM | COc1cc2[nH]nc(-c3cnc(N4CCC4)c(S(C)(=O)=O)c3)c2cc1O[C@H](C)c1c(Cl)cncc1Cl [Example 367, (R)-3-(6-(azetidin-1-yl)-5-(methylsulfonyl)pyridin-3-yl)-5-(1-(3,5-dichloropyridin-4-yl)ethoxy)-6-methoxy-1H-indazole] |
| > 300 nM | > 300 nM | – | 100 to 300 nM | 100 to 300 nM | > 300 nM | CNCc1cc(-c2n[nH]c3ccc(O[C@H](C)c4c(Cl)cncc4Cl)cc23)cnc1N1CC2(C1)CN(S(C)(=O)=O)C2 [Example 368, (R)-1-(5-(5-(1-(3,5-dichloropyridin-4-yl)ethoxy)-1H-indazol-3-yl)-2-(6-(methylsulfonyl)-2,6-diazaspiro[3.3]heptan-2-yl)pyridin-3-yl)-N-methylmethanamine] |
| > 300 nM | > 300 nM | – | 20 to 100 nM | 20 to 100 nM | 20 to 100 nM | CNCc1cc(-c2n[nH]c3cc(OC)c(O[C@H](C)c4c(Cl)cncc4Cl)cc23)cnc1N1CC2(C1)CN(S(C)(=O)=O)C2 [Example 369, (R)-1-(5-(5-(1-(3,5-dichloropyridin-4-yl)ethoxy)-6-methoxy-1H-indazol-3-yl)-2-(6-(methylsulfonyl)-2,6-diazaspiro[3.3]heptan-2-yl)pyridin-3-yl)-N-methylmethanamine] |
| > 300 nM | > 300 nM | – | 20 to 100 nM | 20 to 100 nM | 20 to 100 nM | C[C@@H](Oc1cc2c(-c3cnc(N4CCC4)c(S(C)(=O)=O)c3)n[nH]c2cc1Cl)c1c(Cl)cncc1Cl [Example 370, (R)-3-(6-(azetidin-1-yl)-5-(methylsulfonyl)pyridin-3-yl)-6-chloro-5-(1-(3,5-dichloropyridin-4-yl)ethoxy)-1H-indazole] |

— US20240109865A1, “INDAZOLE COMPOUNDS AS KINASE INHIBITORS” (TYRA BIOSCIENCES, INC., priority 2020, published 2024)
